# Results published in patent US4221789A, “Lactam-N-acetic acids and their amides” (UCB, Societe Anonyme, priority 1978, dated 1980).
# Structures can show the parent of a compound that is named as a salt. Where two headings read alike, the source gives them in different places.
# What was measured:
# mice = test: toxicity in mice, intraperitoneal (Irwin's test); format: in vivo
# Description: The compounds of formula I have a remarkably low toxicity.
# *Dose which brings about the death of one animal out of three in Irwin's
# test (S. IRWIN, Gordon Research Conference on Medicinal Chemistry, Colby
# Junior College, New London, 1959).
# rat [1] = test: active avoidance test (memory retention; paw withdrawal threshold); format: in vivo; details: for minimal effective dose: sc, read-out: Active dose
# Description: (A) The action on mnemic processes is first shown by the ability of the compounds to improve a type of memory retention in the rat. The principle of the active avoidance test (see M. GREINDL and S. PREAT, Arch.Int. Pharmacodyn.Therap.223,(1976),(1),168-171) developed in our laboratories and used for this purpose, may be described as follows: the withdrawal reaction of a rat's paw when subjected to an increasing, quantified pressure is observed. The pressure at which the withdrawal reaction is produced, is called the reaction threshold. This threshold is expressed by the number of graduations of the scale of the apparatus used (Analgesymeter Ugo Basile, Milan) and thus corresponds to the minimum pressure which brings about withdrawal when applied to the animal's paw. It is read off directly on the scale of the apparatus used.
# Inversely, animals treated with a substance having a positive effect on the mnemic processes (such as piracetam) show a significant degree of retention: the stimulus to which the rats react by a reflex of avoidance is statistically lower than that of the control animals. A minimum of 20 rats per test are used (10 treated rats and 10 control rats) and the active dose is defined as the minimum dose lowering the stimulus to below 11 graduations.
# rat [2] = test: reduction of the spinal fixation time; format: in vivo; details: for minimal effective dose: ip, 35 min, read-out: Active dose
# Description: (B) The action on the mnemic processes is also shown by the reduction of the spinal fixation time, a test which has been described in literature (see C. GIURGEA and F. MOURAVIEFF-LESUISSE, Arch.Int.Pharmacodyn.191,(1971,No. 2), 279) as an elementary model of memory and which provides pharmacological reactivity in good correlation with clinical physiopathology. In the rat, after unilateral lesion of the cerebellum, there is a postural asymmetry of the hind paws. This asymmetry may-persist, even after spinal section, if the animal has passed a sufficient period of time in this position. This time, which is called the spinal fixation time, is 45 minutes under the experimental conditions applied here.
# On the other hand, if spinal section is performed before the expiry of this period of time, for example 35 minutes after the onset of asymmetry, the latter disappears.
# Inversely, any product which allows the rats to retain the asymmetry (thus effecting spinal fixation), when the spinal section is performed after 35 minutes, is considered to be active.
# By "number of animals" is to be understood the number of animals which responded positively to the test in relation to the number of animals tested at the dose indicated: […]
# [3] = test system: papillary muscle isolated from the cat's heart; test: "papillary muscle" test (inotropic activity); details: for activation at 10 µg/kg, 0.01 mg/kg: Felis catus, read-out: increase of the strength of muscular contraction
# Description: The method used is that of M. K. CATTELL and H. GOLD (J.Pharmacol.Exptl. Therap.62, (1938), 116-125). The experiment is carried out on a papillary muscle isolated from the cat's heart and dipped in a physiological salt solution to which the compound to be tested is added.
# [4] = toxicity in the rat, intravenous or oral (LD 50); details: in vivo
# Description: Furthermore, when administered intravenously (i.v.) or orally in the rat, the compounds also have a low toxicity, as indicated in the following Table: […]
# [5] = rat, subcutaneous, minimum dose lowering the stimulus to below 11 graduations, tested 24 hours later
# [6] = rat, intraperitoneal, spinal section after 35 minutes
# [7] = rat, intraperitoneal, 0.1 mmol/kg, spinal section after 35 minutes
# [8] = rat, intraperitoneal, 0.2 mmol/kg, spinal section after 35 minutes
SMILES,"Dose which brings about the death of one animal out of three in Irwin's test (mice; mouse, in vivo, ip) [mg/kg]","Dose which brings about the death of one animal out of three in Irwin's test (mice; mice, intraperitoneal) [mg/kg]","minimal effective dose (rat [1]; Rattus norvegicus, 24 h) [µmol/kg]",also measured
"NC(=O)C(CCO)N1CC(c2ccc(Cl)cc2)C(c2ccccc2)C1=O (stereo not drawn) [Example 4.5, 4-p-Chlorophenyl-alpha-(2-hydroxyethyl)-3-phenyl-2-oxo-1-pyrrolidineacetamide]",> 224,–,–,–
"CC1CCN(C(CCO)C(N)=O)C1=O (stereo not drawn) [Example 4.2, alpha-(2-Hydroxyethyl)-3-methyl-2-oxo-1-pyrrolidineacetamide]",–,> 1200,–,–
"O=C(NC1CCCC1)C(CCO)N1CCCC1=O (stereo not drawn) [Example 6.5, N-cyclopentyl-alpha-(2-hydroxyethyl)-2-oxo-1-pyrrolidineacetamide]",> 762,–,–,minimal effective dose (rat [1]; [5]): 0.2 µmol/kg
"O=C(C(CCO)N1CCCC1=O)N1CCCCC1 (centres unmarked) [Example 6.2, 1-[4-Hydroxy-2-(2-oxo-1-pyrrolidinyl)butyryl]-piperidine]",–,> 1524,–,–
"O=C(C(CCO)N1CCCC1=O)N1CCN(Cc2ccccc2)CC1 (centres unmarked) [Example 6.4, 1-Benzyl-4-[4-hydroxy-2-(2-oxo-1-pyrrolidinyl)butyryl]-piperazine]",> 345,–,–,minimal effective dose (rat [1]; [5]): 1 µmol/kg
"O=C(O)C(CCO)N1CCCC1=O (stereo not drawn) [Example 3, alpha-(2-Hydroxyethyl)-2-oxo-1-pyrrolidineacetic acid]",> 1222,–,–,minimal effective dose (rat [2]; [6]): 100 µmol/kg; Number of animals which responded positively / number tested (rat [2]; [7]): 4/7
"NC(=O)C(CCO)N1CCCC1=O (stereo not drawn) [Example 4.1, alpha-(2-Hydroxyethyl)-2-oxo-1-pyrrolidineacetamide]",–,> 1116,2,"activation at 10 µg/kg, 0.01 mg/kg [3]: 7%; inotropic activity ([3]; isolated cat papillary muscle, comparison with caffeine): superior to that of caffeine; minimal effective dose (rat [2]; Rattus norvegicus): 100 µmol/kg; Number of animals which responded positively / number tested (rat [2]; [7]): 3/7; LD50 ([4]; iv): > 4000 mg/kg; LD50 ([4]; po, orally): > 10000 mg/kg"
"CCN(CC)C(=O)C(CCO)N1CCCC1=O (stereo not drawn) [Example 5.3, N,N-Diethyl-alpha-(2-hydroxyethyl)-2-oxo-1-pyrrolidineacetamide]",–,> 1452,0.2,–
"O=C(C(CCO)N1CCCC1=O)N1CCOCC1 (centres unmarked) [Example 6.1, 4-[4-Hydroxy-2-(2-oxo-1-pyrrolidinyl)butyryl]-morpholine]",–,> 1536,0.2,–
"NC(=O)CN1CCCC1=O [Compound A, 2-oxo-1-pyrrolidineacetamide, reference compound]",–,–,25,minimal effective dose (rat [2]; [6]): 200 µmol/kg; Number of animals which responded positively / number tested (rat [2]; [8]): 4/9
"O=C(O)CN1CCCC1=O [Compound C, 2-oxo-1-pyrrolidineacetic acid, reference compound]",–,–,–,"minimal effective dose (rat [2]; [6]): 320 µmol/kg; Number of animals which responded positively / number tested (rat [2]; rat, intraperitoneal, 0.32 mmol/kg, spinal section after 35 minutes): 2/4; activity in the active avoidance test (rat [1]; rat, subcutaneous, at the dose of 0.1 mmol/kg): inactive"
"O=C(NCc1ccccc1)C(CCO)N1CCCC1=O (stereo not drawn) [Example 6.6, N-Benzyl-alpha-(2-hydroxyethyl)-2-oxo-1-pyrrolidineacetamide]",–,822,2,minimal effective dose (rat [2]; Rattus norvegicus): 100 µmol/kg; Number of animals which responded positively / number tested (rat [2]; [7]): 3/7
"CC1CC(C)N(C(CCO)C(N)=O)C1=O (stereo not drawn) [Example 4.3, alpha-(2-Hydroxyethyl)-3,5-dimethyl-2-oxo-1-pyrrolidineacetamide]",–,> 1286,–,–
"Cn1c(=O)c2c(ncn2C)n(C)c1=O [caffeine, reference compound]",–,–,–,"activation at 10 µg/kg, 0.01 mg/kg ([3]; isolated cat papillary muscle, at the dose of 10 μg/kg): 4%"
"O=C(O)C(O)N1CCCC1=O (stereo not drawn) [Example 2, alpha-Hydroxy-2-oxo-1-pyrrolidineacetic acid (dicyclohexylamine salt)]",> 102,–,–,minimal effective dose (rat [2]; [6]): 100 µmol/kg; Number of animals which responded positively / number tested (rat [2]; [7]): 4/7; minimal effective dose (rat [1]; [5]): 5 µmol/kg
"O=C(NC1CCCCC1)C(CCO)N1CCCC1=O (stereo not drawn) [Example 5.2, N-Cyclohexyl-alpha-(2-hydroxyethyl)-2-oxo-1-pyrrolidineacetamide]",> 1608,–,–,–
"CCC(C(N)=O)N1CCCC1=O (stereo not drawn) [Compound B, alpha-ethyl-2-oxo-1-pyrrolidineacetamide, reference compound]",–,–,5,minimal effective dose (rat [2]; [6]): 200 µmol/kg; Number of animals which responded positively / number tested (rat [2]; [8]): 7/22
"CCCCNC(=O)C(CCO)N1CCCC1=O (stereo not drawn) [Example 5.1, N-n-Butyl-alpha-(2-hydroxyethyl)-2-oxo-1-pyrrolidineacetamide]",–,> 1452,–,–
"CCCNC(=O)C(CCO)N1CCCC1=O (stereo not drawn) [Example 6.3, alpha-(2-Hydroxyethyl)-N-propyl-2-oxo-1-pyrrolidineacetamide]",–,> 1368,0.1,–
"CCCCC1CCN(C(CCO)C(N)=O)C1=O (stereo not drawn) [Example 4.4, 3-n-Butyl-alpha-(2-hydroxyethyl)-2-oxo-1-pyrrolidineacetamide]",> 1452,–,–,–
"CC(C)NC(=O)C(CCO)N1CCCC1=O (stereo not drawn) [Example 5.4, alpha-(2-Hydroxyethyl)-N-isopropyl-2-oxo-1-pyrrolidineacetamide]",–,> 1368,–,–
